Measured values from US6518423B1, “Benzopiperidine derivatives” (Eisai Co., Ltd., priority 1996, dated 2003).
Where a name gives a salt, the structure may show the parent alone.

Row | melting point | Compound
1 | 265 to 268 °C | COC(=O)c1ccc2c(c1)Nc1nccnc1S2
2 | 222 to 224 °C | CCOC(=O)c1ncn(Cc2ccc3c(c2)Nc2nccnc2S3)c1C
3 | 275 to 276 °C | O=C(O)/C=C/c1cn(Cc2ccc3c(c2)Nc2nccnc2S3)cn1
4 | > 298 °C | C/C(=C\c1c(C)ncn1Cc1ccc2c(c1)Nc1nccnc1S2)C(=O)O
5 | 199 to 201 °C | O=C(O)CC1CC2(C1)C1CCCC2CN(Cc2ccc3c(c2)Nc2nccnc2S3)C1 (stereo not drawn)
6 | 223 to 225 °C (dec.) | O=C(O)C(F)=C1C2CCCC1CN(Cc1ccc3c(c1)Nc1nccnc1S3)C2
7 | 110 to 115 °C | CC(CC1C2CN(Cc3ccc4c(c3)Nc3nccnc3S4)CC1C(C)CC2C)C(=O)O (stereo not drawn)
8 | 164 to 165 °C | CCOP(=O)(Cc1ccc2c(c1)Nc1nccnc1S2)OCC
9 | 203 to 204 °C | CN(Cc1ccc2c(c1)Nc1nccnc1S2)CC1CCC(C(=O)O)CC1 (stereo not drawn)
10 | 220 to 225 °C | O=C(O)CCNC(=O)Cc1ccc2c(c1)Nc1nccnc1S2
11 | 110 to 120 °C (dec.) | CCCCC(Sc1ncnc2c1ncn2Cc1ccc2c(c1)Nc1nccnc1S2)C(=O)O (stereo not drawn)
12 | 268 to 270 °C | N#CN=C(Cc1ccc2c(c1)Nc1nccnc1S2)NCCO
13 | 196 to 199 °C | NS(=O)(=O)NC1CCN(Cc2ccc3c(c2)Nc2nccnc2S3)CC1
14 | 219 to 221 °C | OC(c1ccc2c(c1)Nc1nccnc1S2)c1ccccc1CN1CCCCC1 (stereo not drawn)
15 | 191 to 192 °C | CN1CCN(Cc2ccc3c(c2)Nc2nccnc2S3)CC1
16 | 176 to 180 °C | CC1(O)CCN(Cc2ccc3c(c2)Nc2nccnc2S3)CC1
17 | 56 to 57 °C | O=S(=O)(NC1CCN(Cc2ccc3c(c2)Nc2nccnc2S3)CC1)N1CCCCC1
18 | 202 to 206 °C | N/C(=N\S(N)(=O)=O)C1CCN(Cc2ccc3c(c2)Nc2nccnc2S3)CC1

Row | melting point | Compound
19 | 168 to 170 °C | CC(=O)NCC1CCN(Cc2ccc3c(c2)Nc2nccnc2S3)CC1
20 | > 300 °C | CNc1c(N2CCN(Cc3ccc4c(c3)Nc3nccnc3S4)CC2)c(=O)c1=O
21 | 161 to 163 °C | c1cnc2c(n1)Nc1cc(CN3CCCCCC3)ccc1S2
22 | 155 to 160 °C | COc1cc2c(cc1CN1CCC(CCC(C)C(=O)O)CC1)Nc1nccnc1S2 (stereo not drawn)
23 | 149 to 151 °C | O=C(O)CC(=O)NC1CCN(Cc2ccc3c(c2)Nc2nccnc2S3)CC1
24 | 192 °C (dec.) | O=C(O)Cc1ccc(C2(O)CCN(Cc3ccc4c(c3)Nc3nccnc3S4)CC2)cc1
25 | 261 to 265 °C (dec.) | O=C([O-])Cc1ccc(OC2CCN(Cc3ccc4c(c3)Nc3nccnc3S4)CC2)cc1.[Na+]
26 | 125 to 127 °C | CC(C(=O)O)=C1CCN(Cc2ccc3c(c2)Nc2nccnc2S3)CC1
27 | 115 to 118 °C | CC(CCC1CCN(Cc2cnc3c(c2)Nc2nccnc2S3)CC1)C(=O)O (stereo not drawn)
28 | 241 to 242 °C (dec.) | Cl.O[C@@H]1CN(Cc2ccc3c(c2)Nc2nccnc2S3)C[C@H]1O (relative stereo)
29 | 112 to 117 °C | O=C(O)CC1CC2CN(Cc3ccc4c(c3)Nc3nccnc3S4)CC2C1 (stereo not drawn) [711]
30 | 110 to 115 °C | O=C(O)CC1CC2CN(Cc3ccc4c(c3)Nc3nccnc3S4)CC2C1 (stereo not drawn) [714]
31 | 240 to 242 °C | CC(C)(CCCN1CCN(Cc2ccc3c(c2)Nc2nccnc2S3)CC1)C(=O)O [750]
32 | > 275 °C | CC(C)(CCCN1CCN(Cc2ccc3c(c2)Nc2nccnc2S3)CC1)C(=O)O [751]
33 | 142 to 143 °C | CCOC(=O)CC1C2CCCC1CN(Cc1ccc3c(c1)Nc1nccnc1S3)C2 (stereo not drawn) [Example 17]
34 | 142 to 146 °C | CC1CC2CN(Cc3ccc4c(c3)Nc3nccnc3S4)CC(C1)C2CC(=O)O (stereo not drawn) [Example 78]
35 | 215 to 219 °C | OC1C2CCCC1CN(Cc1ccc3c(c1)Nc1nccnc1S3)C2 (stereo not drawn) [Example 126]
36 | 189 to 192 °C | OC1C2CCCC1CN(Cc1ccc3c(c1)Nc1nccnc1S3)C2 (stereo not drawn) [Example 127]

The remaining lines, values behind:

Row | Compound | melting point
37 | Clc1nccn1Cc1ccc2c(c1)Nc1nccnc1S2 | 231 to 232 °C
38 | Nc1nccn1Cc1ccc2c(c1)Nc1nccnc1S2 | 286 to 287 °C
39 | Cc1ncn(Cc2ccc3c(c2)Nc2nccnc2S3)c1CO | 188 to 192 °C
40 | c1cnc2c(n1)Nc1cc(Cn3ncnn3)ccc1S2 | 206 to 208 °C
41 | COC(c1cccnc1)c1ccc2c(c1)Nc1nccnc1S2 (stereo not drawn) | 156 to 188 °C
42 | CCc1ccc(C(O)c2ccc3c(c2)Nc2nccnc2S3)cn1 (stereo not drawn) | 161 to 163 °C
43 | CN(Cc1ccc(S(N)(=O)=O)cc1)Cc1ccc2c(c1)Nc1nccnc1S2 | 181 to 184 °C
44 | N#Cc1ncnc2c1ncn2Cc1ccc2c(c1)Nc1nccnc1S2 | 272 to 274 °C
45 | c1cnc2c(n1)Nc1cc(Cn3cnc4c(N5CCCCC5)ncnc43)ccc1S2 | 228 to 229 °C
46 | OCCCc1ncnc2c1ncn2Cc1ccc2c(c1)Nc1nccnc1S2 | 174 to 177 °C
47 | OCC#Cc1ncnc2c1ncn2Cc1ccc2c(c1)Nc1nccnc1S2 | 152 to 154 °C (dec.)
48 | CCOC(=O)CCCCSc1ncnc2ncn(Cc3ccc4c(c3)Nc3nccnc3S4)c12 | 175 to 178 °C
49 | N/C(Cc1ccc2c(c1)Nc1nccnc1S2)=N\NS(=O)(=O)c1ccccc1 | 226 to 227 °C
50 | CS(=O)(=O)NC1CN=C(Cc2ccc3c(c2)Nc2nccnc2S3)NC1.Cl (stereo not drawn) | 275 to 277 °C
51 | N#CN=C(Cc1ccc2c(c1)Nc1nccnc1S2)NCCS(=O)(=O)[O-].[Na+] | 213 to 215 °C
52 | N#CN=CNCc1ccc2c(c1)Nc1nccnc1S2 | 224 to 226 °C
53 | N#CN=CN(Cc1ccc2c(c1)Nc1nccnc1S2)Cc1ccccn1 | 208 to 210 °C
54 | CN(C)/C=N/Cc1ccc2c(c1)Nc1nccnc1S2 | 218 to 219 °C
55 | CN/C(=C\[N+](=O)[O-])NCc1ccc2c(c1)Nc1nccnc1S2 | > 265 °C (dec.)
56 | COC(=O)c1ccc(CN2c3ccccc3Nc3nccnc32)cc1 | 232 to 234 °C
57 | COc1ccc2c(c1)N(C)c1nccnc1N2 | 195 to 197 °C
58 | CN1c2ccc(CNC(=N)N)cc2Nc2nccnc21 | > 275 °C
59 | CN1c2ccc(C#CCO)cc2Nc2nccnc21 | 241 to 243 °C
60 | NC(=O)c1ccc(NCc2ccc3c(c2)Nc2nccnc2S3)nc1 | 245 to 250 °C
61 | Cc1ccc(NCc2ccc3c(c2)Nc2nccnc2S3)cn1 | 205 to 208 °C
62 | Cc1cc(NCc2ccc3c(c2)Nc2nccnc2S3)c2ccccc2n1 | 290 to 300 °C
63 | NCc1ncnc2c1ncn2Cc1ccc2c(c1)Nc1nccnc1S2 (as salt: oxalate) | 97 to 104 °C (dec.)
64 | COC(=O)c1ccc(-c2cn(Cc3ccc4c(c3)Nc3nccnc3S4)cn2)cc1 (as salt: trifluoroacetate) | 161 to 162 °C
65 | O=C(O)CC1C2CN(Cc3ccc4c(c3)Nc3nccnc3S4)CC1C21CCC1 (stereo not drawn) [Example 86] | 90 to 92 °C
66 | CC1(C(=O)O)C2CCCC1CN(Cc1ccc3c(c1)Nc1nccnc1S3)C2 (stereo not drawn) [Example 116] | 183 to 185 °C
